Series [1] has as its target Mitogen-activated protein kinase 8 (Homo sapiens, UniProt P45983). The series can be described thus: Inhibition of JNK1.
The target of series [2] is Mitogen-activated protein kinase 9 (Homo sapiens, UniProt P45984). Briefly: Inhibition of JNK2.
Series [3] addresses T1, Calcium/calmodulin-dependent protein kinase type IV (Homo sapiens, UniProt Q16566).
T1 sequence (Q16566 whole entry): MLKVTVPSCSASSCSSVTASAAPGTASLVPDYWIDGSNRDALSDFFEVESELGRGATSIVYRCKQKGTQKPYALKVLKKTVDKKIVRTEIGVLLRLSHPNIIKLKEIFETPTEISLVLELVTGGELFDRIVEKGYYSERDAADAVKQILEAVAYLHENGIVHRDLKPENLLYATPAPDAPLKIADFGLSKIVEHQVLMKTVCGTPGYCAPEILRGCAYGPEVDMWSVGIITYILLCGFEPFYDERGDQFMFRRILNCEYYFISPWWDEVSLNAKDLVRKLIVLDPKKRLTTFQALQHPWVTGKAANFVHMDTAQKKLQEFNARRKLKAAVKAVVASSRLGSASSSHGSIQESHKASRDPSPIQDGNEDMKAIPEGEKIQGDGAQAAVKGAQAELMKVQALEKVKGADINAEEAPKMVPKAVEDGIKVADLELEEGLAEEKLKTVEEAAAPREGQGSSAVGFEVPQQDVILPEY
The series can be described thus: Inhibition of CaMK4.

Series [4] deals with Activated CDC42 kinase 1 (Homo sapiens, UniProt Q07912). Briefly: Inhibition of CDC42.
The nature of series [5]: Oral bioavailability in rat at 5 mg/kg, po. It counts as ADME, organism-based. The settings on record: in vivo.
The nature of series [6]: Half life in rat microsomes. Particulars: liver microsomes. It counts as ADME, Microsome. For orientation: Liver microsomes are a subcellular fraction often used to study metabolism.
The nature of series [7]: Half life in rat at 5 mg/kg, po. It counts as ADME, organism-based. Set-up: dose 5 mg/kg, route oral. The settings on record: in vivo.
Series [8] in a line: AUC in rat at 5 mg/kg, po. It counts as ADME, organism-based. Set-up: dose 5 mg/kg, route oral. The settings on record: plasma.
For series [9], the target named is Mitogen-activated protein kinase 10 (Homo sapiens, UniProt P53779). The series can be described thus: Inhibition of JNK3.
A short description of series [10]: Cmax in rat at 5 mg/kg, po. It counts as ADME, organism-based. Details: dose 5 mg/kg, route oral. Particulars: in vivo.
Series [11] has as its target T2, Serine/threonine-protein kinase Sgk1 (Homo sapiens, UniProt O00141).
T2 sequence (O00141 whole entry): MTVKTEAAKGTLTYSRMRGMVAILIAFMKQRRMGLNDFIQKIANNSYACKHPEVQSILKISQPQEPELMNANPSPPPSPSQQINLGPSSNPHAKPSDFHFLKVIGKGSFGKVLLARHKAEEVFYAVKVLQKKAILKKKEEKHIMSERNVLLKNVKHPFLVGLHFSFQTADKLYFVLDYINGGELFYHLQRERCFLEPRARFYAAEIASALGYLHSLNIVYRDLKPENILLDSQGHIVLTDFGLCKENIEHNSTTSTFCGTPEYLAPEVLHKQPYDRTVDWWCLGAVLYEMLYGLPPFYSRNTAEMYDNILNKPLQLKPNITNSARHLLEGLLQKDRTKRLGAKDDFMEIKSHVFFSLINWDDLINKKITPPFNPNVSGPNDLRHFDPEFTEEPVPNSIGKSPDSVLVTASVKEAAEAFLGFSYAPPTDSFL
The series can be described thus: Inhibition of SGk.

Series [12] can be described thus: Inhibition of MAPKAPK. Details: species or system Homo sapiens.
The nature of series [13]: Inhibition of IGFR. Set-up: species or system Homo sapiens.
Series [14] addresses Voltage-gated inwardly rectifying potassium channel KCNH2 (Homo sapiens, UniProt Q12809). The series can be described thus: Displacement of [3H]dofetilide from hERG. In general terms: In a radioligand displacement assay an active substance lowers the binding of a labelled ligand.
Series [15] is described as follows: Half life in human microsomes. Particulars: liver microsomes. It counts as ADME, Microsome.
The nature of series [16]: Half life in mouse microsomes. It counts as ADME, Microsome.
Series [17] concerns the target c-Jun N-terminal kinase, JNK (Homo sapiens, UniProt P45983+P53779+P45984). The series can be described thus: Inhibition of cJun phosphorylation in HepG2 cells. It counts as functional, cell-based.

Bounds are passed on as bounds.

Sequence of Mitogen-activated protein kinase 8 (P45983 whole entry): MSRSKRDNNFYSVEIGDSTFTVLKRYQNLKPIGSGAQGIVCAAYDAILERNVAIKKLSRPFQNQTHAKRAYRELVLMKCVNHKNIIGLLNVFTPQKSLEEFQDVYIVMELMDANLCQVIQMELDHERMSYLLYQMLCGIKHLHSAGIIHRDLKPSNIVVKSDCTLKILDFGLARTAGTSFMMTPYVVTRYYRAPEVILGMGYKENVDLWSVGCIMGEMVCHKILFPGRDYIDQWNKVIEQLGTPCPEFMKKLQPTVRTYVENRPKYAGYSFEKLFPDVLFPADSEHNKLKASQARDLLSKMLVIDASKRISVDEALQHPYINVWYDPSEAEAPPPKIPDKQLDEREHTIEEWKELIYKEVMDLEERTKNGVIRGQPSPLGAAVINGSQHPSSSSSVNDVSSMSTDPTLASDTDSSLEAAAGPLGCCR
Sequence of Mitogen-activated protein kinase 9 (P45984 whole entry): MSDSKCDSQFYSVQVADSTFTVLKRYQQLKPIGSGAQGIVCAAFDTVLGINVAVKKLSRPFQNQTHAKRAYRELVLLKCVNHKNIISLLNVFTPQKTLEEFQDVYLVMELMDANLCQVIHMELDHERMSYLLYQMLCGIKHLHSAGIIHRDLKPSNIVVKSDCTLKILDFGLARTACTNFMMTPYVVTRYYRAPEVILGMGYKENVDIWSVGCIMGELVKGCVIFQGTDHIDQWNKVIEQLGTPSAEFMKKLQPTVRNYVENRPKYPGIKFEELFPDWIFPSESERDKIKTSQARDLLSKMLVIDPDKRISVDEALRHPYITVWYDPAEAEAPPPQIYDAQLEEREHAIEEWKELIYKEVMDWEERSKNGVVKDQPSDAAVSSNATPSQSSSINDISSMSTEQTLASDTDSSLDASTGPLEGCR
Sequence of Mitogen-activated protein kinase 10 (P53779 whole entry): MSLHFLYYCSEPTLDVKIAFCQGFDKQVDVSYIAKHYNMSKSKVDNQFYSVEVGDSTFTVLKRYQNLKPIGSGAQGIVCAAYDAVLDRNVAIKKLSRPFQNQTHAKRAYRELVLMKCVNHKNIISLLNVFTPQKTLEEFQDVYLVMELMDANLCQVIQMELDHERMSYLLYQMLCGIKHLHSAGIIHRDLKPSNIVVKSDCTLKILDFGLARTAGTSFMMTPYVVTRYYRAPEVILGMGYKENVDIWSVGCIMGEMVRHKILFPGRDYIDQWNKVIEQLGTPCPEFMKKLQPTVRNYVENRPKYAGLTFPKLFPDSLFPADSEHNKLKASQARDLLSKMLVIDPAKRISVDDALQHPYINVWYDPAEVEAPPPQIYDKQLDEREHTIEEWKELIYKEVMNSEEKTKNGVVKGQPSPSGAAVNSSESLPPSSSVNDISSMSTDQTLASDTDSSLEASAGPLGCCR
Sequence of Activated CDC42 kinase 1 (Q07912 whole entry): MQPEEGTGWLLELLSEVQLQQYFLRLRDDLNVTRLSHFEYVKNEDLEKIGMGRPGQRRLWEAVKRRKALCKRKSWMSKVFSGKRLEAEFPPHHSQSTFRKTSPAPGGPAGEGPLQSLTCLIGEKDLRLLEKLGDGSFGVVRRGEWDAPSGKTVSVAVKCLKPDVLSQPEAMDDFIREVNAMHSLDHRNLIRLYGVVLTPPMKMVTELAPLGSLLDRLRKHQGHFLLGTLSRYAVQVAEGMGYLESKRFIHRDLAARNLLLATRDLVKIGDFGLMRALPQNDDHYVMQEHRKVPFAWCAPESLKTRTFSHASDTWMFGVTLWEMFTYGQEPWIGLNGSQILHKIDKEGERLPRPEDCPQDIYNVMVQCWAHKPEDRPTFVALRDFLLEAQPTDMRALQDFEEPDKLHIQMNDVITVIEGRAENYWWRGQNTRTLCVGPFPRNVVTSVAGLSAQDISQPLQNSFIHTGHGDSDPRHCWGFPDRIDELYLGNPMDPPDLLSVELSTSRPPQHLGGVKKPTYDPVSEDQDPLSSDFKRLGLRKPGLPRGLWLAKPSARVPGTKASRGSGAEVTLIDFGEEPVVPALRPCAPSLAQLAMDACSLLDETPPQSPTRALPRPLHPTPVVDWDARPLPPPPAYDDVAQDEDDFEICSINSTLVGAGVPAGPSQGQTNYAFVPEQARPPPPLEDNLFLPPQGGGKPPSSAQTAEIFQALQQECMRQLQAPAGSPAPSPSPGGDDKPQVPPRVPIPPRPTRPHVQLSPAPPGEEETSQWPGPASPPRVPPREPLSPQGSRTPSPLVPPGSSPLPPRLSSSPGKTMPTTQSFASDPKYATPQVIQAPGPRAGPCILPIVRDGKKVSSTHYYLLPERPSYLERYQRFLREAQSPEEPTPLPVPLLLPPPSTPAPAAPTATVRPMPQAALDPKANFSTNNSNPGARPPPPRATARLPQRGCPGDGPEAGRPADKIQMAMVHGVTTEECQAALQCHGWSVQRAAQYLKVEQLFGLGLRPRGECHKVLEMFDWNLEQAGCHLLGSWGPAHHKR
Sequence of Voltage-gated inwardly rectifying potassium channel KCNH2 (Q12809 whole entry): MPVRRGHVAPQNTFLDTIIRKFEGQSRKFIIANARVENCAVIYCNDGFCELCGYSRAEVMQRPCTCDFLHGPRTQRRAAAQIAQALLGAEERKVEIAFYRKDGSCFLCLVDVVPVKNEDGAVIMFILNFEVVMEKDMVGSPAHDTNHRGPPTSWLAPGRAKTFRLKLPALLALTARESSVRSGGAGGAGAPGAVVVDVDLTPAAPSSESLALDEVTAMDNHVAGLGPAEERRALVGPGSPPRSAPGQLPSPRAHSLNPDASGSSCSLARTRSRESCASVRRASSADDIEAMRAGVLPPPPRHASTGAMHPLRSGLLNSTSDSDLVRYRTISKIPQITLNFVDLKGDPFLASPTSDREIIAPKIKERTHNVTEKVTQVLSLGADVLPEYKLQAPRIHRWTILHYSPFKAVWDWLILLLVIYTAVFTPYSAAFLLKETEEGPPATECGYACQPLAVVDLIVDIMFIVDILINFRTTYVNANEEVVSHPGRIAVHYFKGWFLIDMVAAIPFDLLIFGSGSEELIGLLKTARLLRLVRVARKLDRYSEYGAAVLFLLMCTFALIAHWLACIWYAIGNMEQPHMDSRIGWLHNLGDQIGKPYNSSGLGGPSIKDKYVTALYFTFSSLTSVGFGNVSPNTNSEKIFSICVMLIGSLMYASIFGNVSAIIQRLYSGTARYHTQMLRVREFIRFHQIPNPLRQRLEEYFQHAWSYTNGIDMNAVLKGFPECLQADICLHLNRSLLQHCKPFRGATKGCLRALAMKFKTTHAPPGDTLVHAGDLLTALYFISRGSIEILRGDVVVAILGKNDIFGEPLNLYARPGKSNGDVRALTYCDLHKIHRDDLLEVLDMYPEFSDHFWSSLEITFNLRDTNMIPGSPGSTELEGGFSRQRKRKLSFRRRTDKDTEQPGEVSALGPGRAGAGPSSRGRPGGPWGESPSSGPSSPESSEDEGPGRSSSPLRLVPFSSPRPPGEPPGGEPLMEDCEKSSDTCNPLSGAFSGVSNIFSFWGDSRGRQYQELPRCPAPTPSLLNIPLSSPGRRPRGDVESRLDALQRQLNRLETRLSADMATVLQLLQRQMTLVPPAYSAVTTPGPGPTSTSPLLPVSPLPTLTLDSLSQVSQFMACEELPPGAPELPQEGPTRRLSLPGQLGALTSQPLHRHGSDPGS

The IC50 is the concentration at which inhibition is half-maximal. In the case of `CS(=O)(=O)c1ccc(CNC(=O)c2cc(N)c(C#N)c(Cl)n2)cc1`, the IC50 in [1] came to 1500 nM; in series [2], 4400 nM.

Broadly, the Ki is a dissociation constant, usually derived from enzyme kinetics or from competition with a known ligand. Broadly, the half-life is the time needed for the level to fall by half in the phase considered. A higher half-life goes with slow decline. Broadly, the AUC is the area under the concentration-time curve, a measure of exposure. Read a high AUC as high exposure. In general, Cmax refers to the peak of the concentration-time curve. Take `CCOc1nc(C(=O)NCc2ccc(S(C)(=O)=O)cc2)cc(N)c1Cl`: the Ki in [3] was above 8500 nM; in series [4], above 9500 nM; in series [11], above 9400 nM; in series [12], above 8400 nM; in series [13], above 1000 nM. For the same compound, the bioavailability in [5] stood at 124%. Moreover, the half-life in [6] was above 1 h; in series [7] it was 5.1 h. The AUC in [8] came out at 15400 ng·h/mL. Moreover, in series [9], half-maximal inhibition (IC50) required 120 nM. The compound further had a Cmax in series [10] of 1780 ng/mL.

For `CCOc1nc(C(=O)NCc2ccc(S(C)(=O)=O)cc2)cc(N)c1C#N`, the bioavailability in series [5] was 38.8%. Moreover, the half-life in series [6] was above 1 h; in [7], 3.4 h; in [15], above 1 h; in [16] it was above 1 h. In addition, in [14], the IC50 was above 100000 nM. For the same compound, the AUC in series [8] came out at 6320 ng·h/mL. The highest level in [10] (Cmax) was 1020 ng/mL.

Regarding `CCOc1nc(C(=O)NCc2cc(OC)ccc2OC)ccc1C#N`, the IC50 in [17] stood at 2500 nM; in [1] it was 230 nM.

In the case of `CC(C)Oc1nc(C(=O)NCc2ccc(S(C)(=O)=O)cc2)cc(N)c1Cl`, the IC50 stood at 410 nM in [17], 75 nM in [1] and 68 nM in series [2].

Regarding `CCOc1nc(C(=O)NCc2cccnc2)cc(N)c1C#N`, in series [5], the bioavailability came to 32.7%. Moreover, the half-life in series [7] was 0.5 h; in series [16], 0.0833 h. In series [8], the area under the curve (AUC) worked out at 3800 ng·h/mL. This compound also registered a Cmax in series [10] of 2920 ng/mL.

Take `CCOc1nc(C(=O)NCc2ccc(S(C)(=O)=O)cc2)ccc1C#N`: the IC50 in series [17] was 5800 nM; in series [1], 390 nM.

`CCOc1nc(NCc2cc(OC)ccc2OC)cc(N)c1C#N` registered an IC50 in [1] above 10000 nM.

For the compound `CCOc1nc(C(=O)NCc2ccccc2S(N)(=O)=O)cc(N)c1C#N`, in [5], the bioavailability came to 54.7%. Also, the half-life in series [6] is above 1 h; in [7] it was 2.2 h. The compound also yielded an AUC in series [8] of 4000 ng·h/mL. Also, the peak level in series [10] (Cmax) was 1320 ng/mL. In [1], the IC50 amounted to 12 nM.

With `CCOc1nc(C(=O)NCc2ccccc2)cc(N)c1C#N`, the IC50 in [17] was 1100 nM; in series [1], 270 nM; in [2] it was 190 nM.

With `CCOc1nc(C(=O)NCc2ccc(-c3ccc(C(=O)O)cc3)nc2)cc(N)c1C#N`, the IC50 in [17] is above 10000 nM; in series [1] it was 4 nM; in [2], 11 nM.

On to `CCOc1nc(C(=O)N(C)Cc2ccc(S(C)(=O)=O)cc2)cc(N)c1C#N`, for which the 50% inhibitory concentration (IC50) was above 10000 nM in series [17], 6400 nM in series [1] and above 10000 nM in series [2].

Regarding `CCOc1nc(C(=O)NCc2cc(OC)ccc2OC)cc(N)c1C#N`, the IC50 in [17] worked out at 640 nM; in [1], 71 nM; in series [2], 120 nM.

For the compound `CCOc1nc(C(=O)NC)cc(N)c1C#N`, in series [1], the IC50 was 1200 nM and the affinity, expressed as Ki, was 400 nM. In addition, in [2], it took 610 nM to reach half-maximal inhibition (IC50).

The record behind these values is ChEMBL document CHEMBL1138045 (J Med Chem, 2006).
